According to patent publication US7196090B2, “Kinase inhibitors” (Warner-Lambert Company, priority 2002, dated 2007):

| SMILES | melting point |
| --- | --- |
| COc1cc(OC)c(F)c(N2Cc3cnc(N)nc3N(C3CCNCC3)C2=O)c1F.O=C(O)C(F)(F)F | 200 to 220 °C (dec.) |
| CNc1ncc2c(n1)N(C1CCNCC1)C(=O)N(c1c(F)c(OC)cc(OC)c1F)C2.O=C(O)C(F)(F)F | 135 to 140 °C |
| CCN(CC)CCCCNc1ncc2c(n1)N(C1CCCC1)C(=O)N(c1c(F)c(OC)cc(OC)c1F)C2 [Example 2, 1-Cyclopentyl-7-(4-diethylamino-butylamino)-3-(2,6-difluoro-3,5-dimethoxy-phenyl)-3,4-dihydro-1H-pyrimido[4,5-d]pyrimidin-2-one] | 132 to 133 °C |
| COc1cc(OC)c(F)c(N2Cc3cnc(NC[C@H](O)[C@@H](O)CO)nc3N(C3CCCC3)C2=O)c1F [Example 4, (S,S)-1-Cyclopentyl-3-(2,6-difluoro-3,5-dimethoxy-phenyl)-7-(2,3,4-trihydroxy-butylamino)-3,4-dihydro-1H-pyrimido[4,5-d]pyrimidin-2-one] | 160 °C (dec.) |
| COc1cc(OC)c(F)c(N2Cc3cnc(NC4CCC(O)CC4)nc3N(C3CCCC3)C2=O)c1F (stereo not drawn) [Example 5, 1-Cyclopentyl-3-(2,6-difluoro-3,5-dimethoxy-phenyl)-7-(4-hydroxy-cyclohexylamino)-3,4-dihydro-1H-pyrimido[4,5-d]pyrimidin-2-one] | 208 to 212 °C (dec.) |
| COc1cc(OC)c(F)c(N2Cc3cnc(NC(CO)CO)nc3N(C3CCCC3)C2=O)c1F [Example 6, 1-Cyclopentyl-3-(2,6-difluoro-3,5-dimethoxy-phenyl)-7-(2-hydroxy-1-hydroxymethyl-ethylamino)-3,4-dihydro-1H-pyrimido[4,5-d]pyrimidin-2-one] | 172 to 174 °C |
| COc1cc(OC)c(F)c(N2Cc3cnc(NCC(O)CN)nc3N(C3CCCC3)C2=O)c1F (stereo not drawn) [Example 7, 7-(3-Amino-2-hydroxy-propylamino)-1-cyclopentyl-3-(2,6-difluoro-3,5-dimethoxy-phenyl)-3,4-dihydro-1H-pyrimido[4,5-d]pyrimidin-2-one] | 167 °C (dec.) |
| COc1cc(OC)c(F)c(N2Cc3cnc(NCCOCCO)nc3N(C3CCCC3)C2=O)c1F [Example 8, 1-Cyclopentyl-3-(2,6-difluoro-3,5-dimethoxy-phenyl)-7-[2-(2-hydroxy-ethoxy)-ethylamino]-3,4-dihydro-1H-pyrimido[4,5-d]pyrimidin-2-one] | 160 to 163 °C |
| CCN(CC)CCCCNc1ncc2c(n1)N(C1CC1)C(=O)N(c1c(F)c(OC)cc(OC)c1F)C2 [Example 9, 1-Cyclopropyl-7-(4-diethylamino-butylamino)-3-(2,6-difluoro-3,5-dimethoxy-phenyl)-3,4-dihydro-1H-pyrimido[4,5-d]pyrimidin-2-one] | 139 to 141 °C |
| CCN(CC)CCCCNc1ncc2c(n1)N(CC)C(=O)N(c1c(F)c(OC)cc(OC)c1F)C2 [Example 10, 7-(4-Diethylamino-butylamino)-3-(2,6-difluoro-3,5-dimethoxy-phenyl)-1-ethyl-3,4-dihydro-1H-pyrimido[4,5-d]pyrimidin-2-one] | 140 to 141 °C |
| CCN1C(=O)N(c2c(F)c(OC)cc(OC)c2F)Cc2cnc(NC(CO)CO)nc21 [Example 11, 3-(2,6-Difluoro-3,5-dimethoxy-phenyl)-1-ethyl-7-(2-hydroxy-1-hydroxymethyl-ethylamino)-3,4-dihydro-1H-pyrimido[4,5-d]pyrimidin-2-one] | 168 to 172 °C |
| CCN1C(=O)N(c2c(F)c(OC)cc(OC)c2F)Cc2cnc(NC3CCC(O)CC3)nc21 (stereo not drawn) [Example 12, 3-(2,6-Difluoro-3,5-dimethoxy-phenyl)-1-ethyl-7-(4-hydroxy-cyclohexylamino)-3,4-dihydro-1H-pyrimido[4,5-d]pyrimidin-2-one] | 198 to 202 °C |
| COc1cc(OC)c(F)c(N2Cc3cnc(NCC(O)C(C)O)nc3N(C3CCCC3)C2=O)c1F (stereo not drawn) [Example 13, 1-Cyclopentyl-3-(2,6-difluoro-3,5-dimethoxy-phenyl)-7-(2,3-dihydroxy-butylamino)-3,4-dihydro-1H-pyrimido[4,5-d]pyrimidin-2-one] | 195 to 196 °C (dec.) |
| COc1cc(OC)c(F)c(N2Cc3cnc(NCC(O)CO)nc3N(C3CCCC3)C2=O)c1F (stereo not drawn) [Example 14, 1-Cyclopentyl-3-(2,6-difluoro-3,5-dimethoxy-phenyl)-7-(2,3-dihydroxy-propylamino)-3,4-dihydro-1H-pyrimido[4,5-d]pyrimidin-2-one] | 118 to 122 °C |
| COc1cc(OC)c(F)c(N2Cc3cnc(NCC(O)C(O)CN)nc3N(C3CCCC3)C2=O)c1F (stereo not drawn) [Example 15, 7-(4-Amino-2,3-dihydroxy-butylamino)-1-cyclopentyl-3-(2,6-difluoro-3,5-dimethoxy-phenyl)-3,4-dihydro-1H-pyrimido[4,5-d]pyrimidin-2-one] | 158 °C (dec.) |
| COc1cc(OC)c(F)c(N2Cc3cnc(NC[C@H](O)[C@@H](O)CO)nc3N(C3CCCC3)C2=O)c1 [Example 16, 1-Cyclopentyl-3-(2-fluoro-3,5-dimethoxy-phenyl)-7-([S,S]-2,3,4-trihydroxy-butylamino)-3,4-dihydro-1H-pyrimido[4,5-d]pyrimidin-2-one] | 86 to 88 °C |
| CCN1C(=O)N(c2c(F)c(OC)cc(OC)c2F)Cc2cnc(NCCOCCO)nc21 [Example 17, 3-(2,6-Difluoro-3,5-dimethoxy-phenyl)-1-ethyl-7-[2-(2-hydroxy-ethoxy)-ethylamino]-3,4-dihydro-1H-pyrimido[4,5-d]pyrimidin-2-one] | 159 to 160 °C |
| CCN1C(=O)N(c2c(F)c(OC)cc(OC)c2F)Cc2cnc(NCC(O)C(O)CN)nc21 (stereo not drawn) [Example 18, 7-(4-Amino-2,3-dihydroxy-butylamino)-3-(2,6-difluoro-3,5-dimethoxy-phenyl)-1-ethyl-3,4-dihydro-1H-pyrimido[4,5-d]pyrimidin-2-one] | 115 °C (dec.) |

Other lines, results leading:

| melting point | SMILES |
| --- | --- |
| 128 to 129 °C | CCN1C(=O)N(c2c(F)c(OC)cc(OC)c2F)Cc2cnc(NCCCN(CCO)CCO)nc21 [Example 19, 7-{3-[Bis-(2-hydroxy-ethyl)-amino]-propylamino}-3-(2,6-difluoro-3,5-dimethoxy-phenyl)-1-ethyl-3,4-dihydro-1H-pyrimido[4,5-d]pyrimidin-2-one] |
| 179 to 182 °C | COc1cc(OC)c(F)c(N2Cc3cnc(NCC(O)CO)nc3N(C3CCCC3)C2=O)c1F (stereo not drawn) [Example 20, 1-Cyclopentyl-3-(2,6-difluoro-3,5-dimethoxy-phenyl)-7-(2,3-dihydroxy-propylamino)-3,4-dihydro-1H-pyrimido[4,5-d]pyrimidin-2-one] |
| 171 to 173 °C | CCN1C(=O)N(c2c(F)c(OC)cc(OC)c2F)Cc2cnc(NCC(O)C(C)O)nc21 (stereo not drawn) [Example 21, 3-(2,6-Difluoro-3,5-dimethoxy-phenyl)-7-(2,3-dihydroxy-butylamino)-1-ethyl-3,4-dihydro-1H-pyrimido[4,5-d]pyrimidin-2-one] |
| 148 °C | CNc1ncc2c(n1)N(C1CCC(C(=O)O)CC1)C(=O)N(c1c(F)c(OC)cc(OC)c1F)C2 (stereo not drawn) [Example 23, 4-[3-(2,6-Difluoro-3,5-dimethoxy-phenyl)-7-methylamino-2-oxo-3,4-dihydro-2H-pyrimido[4,5-d]pyrimidin-1-yl]-cyclohexanecarboxylic Acid] |
| 194 to 195 °C | COc1cc(OC)c(F)c(N2Cc3cnc(NC(CO)CO)nc3N(C3CCCC3)C2=O)c1 [Example 25, 1-Cyclopentyl-3-(2-fluoro-3,5-dimethoxy-phenyl)-7-(2-hydroxy-1-hydroxymethyl-ethylamino)-3,4-dihydro-1H-pyrimido[4,5-d]pyrimidin-2-one] |
| 129 to 131 °C | CCN1C(=O)N(c2cc(OC)cc(OC)c2F)Cc2cnc(NCCCCO)nc21 [Example 26, 1-Ethyl-3-(2-fluoro-3,5-dimethoxy-phenyl)-7-(4-hydroxy-butylamino)-3,4-dihydro-1H-pyrimido[4,5-d]pyrimidin-2-one] |
| 92 to 94 °C | COc1cc(OC)c(F)c(N2Cc3cnc(NC[C@H](O)CO)nc3N(C3CCCC3)C2=O)c1 [Example 27, (S)-1-Cyclopentyl-7-(2,3-dihydroxy-propylamino)-3-(2-fluoro-3,5-dimethoxy-phenyl)-3,4-dihydro-1H-pyrimido[4,5-d]pyrimidin-2-one] |
| 148 to 152 °C | CCN1C(=O)N(c2c(F)c(OC)cc(OC)c2F)Cc2cnc(NCC(O)CO)nc21 (stereo not drawn) [Example 31, 3-(2,6-Difluoro-3,5-dimethoxy-phenyl)-7-(2,3-dihydroxy-propylamino)-1-ethyl-3,4-dihydro-1H-pyrimido[4,5-d]pyrimidin-2-one] |
| 129 to 130 °C | CCOc1ccc(F)c(N2Cc3cnc(NCCCCN(CC)CC)nc3N(C3CCCC3)C2=O)c1F [Example 32, 1-Cyclopentyl-7-(4-diethylamino-butylamino)-3-(3-ethoxy-2,6-difluoro-phenyl)-3,4-dihydro-1H-pyrimido[4,5-d]pyrimidin-2-one] |
| 89 to 91 °C | COc1cc(OC)c(F)c(N2Cc3cnc(NC[C@@H](O)CO)nc3N(C3CCCC3)C2=O)c1 [Example 33, (R)-1-Cyclopentyl-7-(2,3-dihydroxy-propylamino)-3-(2-fluoro-3,5-dimethoxy-phenyl)-3,4-dihydro-1H-pyrimido[4,5-d]pyrimidin-2-one] |
| 143 to 146 °C | CCN1C(=O)N(c2cc(OC)cc(OC)c2F)Cc2cnc(NCCOCCO)nc21 [Example 34, 1-Ethyl-3-(2-fluoro-3,5-dimethoxy-phenyl)-7-[2-(2-hydroxy-ethoxy)-ethylamino]-3,4-dihydro-1H-pyrimido[4,5-d]pyrimidin-2-one] |
| 108 to 110 °C | COc1cc(OC)c(F)c(N2Cc3cnc(N[C@H]4CC[C@H](O)CC4)nc3N(C3CCCC3)C2=O)c1 [Example 35, 1-Cyclopentyl-3-(2-fluoro-3,5-dimethoxy-phenyl)-7-(trans-4-hydroxy-cyclohexylamino)-3,4-dihydro-1H-pyrimido[4,5-d]pyrimidin-2-one] |
